# From patent US20150141433A1, “N-ARYLMETHYL SULFONAMIDE NEGATIVE MODULATORS OF NR2A” (Mnemosyne Pharmaceuticals, Inc., priority 2013, published 2015)
# Molecular target: T1, NR1/NR2A (Homo sapiens, UniProt Q05586+Q12879)
# T1 construct: host or cells: HEK293 (tetracycline-inducible NR2A expression)
# Test: FDSS Ca2+ influx inhibition assay in HEK293 cells expressing NR1/NR2A
# Type: cell-based
# Conditions: 3 μM glutamate, 3 μM glycine, 1 mM Ca2+, Ca2+ influx inhibition relative to MK801, read-out: NR2A IC50
# Protocol: Cell Culture and plating: HEK293 cells expressing NR1/NR2A (Chantest, Cleveland, Ohio) were grown to 70-80% confluency as an adherent monolayer in standard tissue culture flasks at 37° C., 5% CO2 per supplier's instructions.
# After induction, cell culture medium was removed and cells were rinsed once with Ca^2+ and Mg^2+-free Dulbecco's phosphate buffered saline. Cells were then removed from the flask using TrypLE™ Express (Life Technologies) according to the manufacturer's instructions and collected to 50 ml centrifuge tubes. Following two washes in Ca^27 Mg^2′-free HBSS with 20 mM HEPES (HHnoCa), cells were counted and viability assessed using trypan blue. To load cells with Ca^2′-sensitive dye, they were resuspended in fluo-8 plus Component B (AAT Bioquest Products) diluted in HHnoCa and incubated 15 minutes at 37° C., followed by 30 minutes at room temp (in dark). Cells were then washed and resuspended in HHnoCa to remove extracellular dye and plated in 384-well plates (Falcon, uncoated) at 20,000-30,000 cells/well in a final volume of 25 μL/well.
# FDSS Assay: To each well of the plate, 10 μLtest compound, control (MK801) or HHnoCa buffer was added to a final concentration of 10 μM with a final concentration of DMSO of 0.1%. Following 10 minutes pre-incubation in the dark, plates are loaded onto the Hamamatsu FDSS 6000. After collecting baseline fluorescence images, 3 μM glutamate, 3 μM glycine, and 1 mM Ca^2+ in HHnoCa buffer is added to each well, and Ca^2+ is recorded for 3 minutes. Data were processed by computing ratio of fluorescence at the end of data collection to baseline fluorescence to assess degree of Ca^2+ influx inhibition relative to that observed in MK801.
# T1 sequence (Q12879 23-1464, other chains not shown): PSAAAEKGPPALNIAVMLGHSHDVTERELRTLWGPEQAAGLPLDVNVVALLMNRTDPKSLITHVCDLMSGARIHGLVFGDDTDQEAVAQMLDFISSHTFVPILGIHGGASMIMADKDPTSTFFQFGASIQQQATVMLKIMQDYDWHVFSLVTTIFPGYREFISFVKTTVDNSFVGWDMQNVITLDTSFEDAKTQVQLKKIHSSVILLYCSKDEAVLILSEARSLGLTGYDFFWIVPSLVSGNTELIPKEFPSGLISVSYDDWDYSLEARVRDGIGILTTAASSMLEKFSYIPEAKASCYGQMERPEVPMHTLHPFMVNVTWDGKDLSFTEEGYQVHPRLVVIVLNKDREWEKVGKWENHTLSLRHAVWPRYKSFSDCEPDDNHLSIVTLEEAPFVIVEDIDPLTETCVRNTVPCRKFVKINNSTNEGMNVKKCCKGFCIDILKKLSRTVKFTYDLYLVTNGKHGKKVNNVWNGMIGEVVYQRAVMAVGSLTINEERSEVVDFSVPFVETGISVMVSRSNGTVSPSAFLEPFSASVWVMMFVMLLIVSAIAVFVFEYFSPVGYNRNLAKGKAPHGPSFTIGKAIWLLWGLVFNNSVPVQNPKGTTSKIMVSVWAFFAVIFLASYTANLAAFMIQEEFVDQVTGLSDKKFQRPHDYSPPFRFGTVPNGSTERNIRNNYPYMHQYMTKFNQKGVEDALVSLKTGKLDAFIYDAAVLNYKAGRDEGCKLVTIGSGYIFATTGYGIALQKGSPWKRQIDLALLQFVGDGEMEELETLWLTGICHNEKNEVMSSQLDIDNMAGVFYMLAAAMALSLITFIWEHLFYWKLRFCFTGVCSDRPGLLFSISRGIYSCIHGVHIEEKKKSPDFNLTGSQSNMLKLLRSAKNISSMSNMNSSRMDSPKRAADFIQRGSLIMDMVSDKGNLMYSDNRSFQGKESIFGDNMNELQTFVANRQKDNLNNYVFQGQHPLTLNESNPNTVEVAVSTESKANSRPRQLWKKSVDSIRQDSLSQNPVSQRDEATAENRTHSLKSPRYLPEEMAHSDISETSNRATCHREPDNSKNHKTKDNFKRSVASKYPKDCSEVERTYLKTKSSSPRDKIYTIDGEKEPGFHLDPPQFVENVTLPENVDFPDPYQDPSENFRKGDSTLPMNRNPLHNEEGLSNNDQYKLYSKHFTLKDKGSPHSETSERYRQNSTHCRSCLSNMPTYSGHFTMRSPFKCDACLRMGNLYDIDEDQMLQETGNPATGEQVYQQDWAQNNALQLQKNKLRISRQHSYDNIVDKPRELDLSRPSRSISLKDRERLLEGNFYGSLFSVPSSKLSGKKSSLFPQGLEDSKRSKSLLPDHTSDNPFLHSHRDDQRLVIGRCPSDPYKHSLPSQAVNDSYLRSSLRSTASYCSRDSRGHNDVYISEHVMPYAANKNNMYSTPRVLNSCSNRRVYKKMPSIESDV
row,SMILES,IC50
1,"Cc1ncc(CNC(=O)c2ccc(CNS(=O)(=O)c3ccc(Cl)c(Cl)c3)cn2)s1 [5-(3,4-dichlorobenzenesulfon-amidomethyl)-N-[(2-methyl-1,3-thiazol-5-yl)methyl]pyridine-2-carboxamide]",6680 nM
2,"O=C(NCc1ccno1)c1ccc(CNS(=O)(=O)c2ccc(F)c(Cl)c2)cn1 [5-(3-chloro-4-fluorobenzenesulfon-amidomethyl)-N-(1,2-oxazol-5-ylmethyl)pyridine-2-carboxamide]",2180 nM
3,"O=C(NCc1cnco1)c1ccc(CNS(=O)(=O)c2ccc(F)c(Cl)c2)cn1 [5-(3-chloro-4-fluorobenzenesulfon-amidomethyl)-N-(1,3-oxazol-5-ylmethyl)pyridine-2-carboxamide]",1950 nM
4,"O=C(NCc1nccs1)c1ccc(CNS(=O)(=O)c2ccc(F)c(Cl)c2)cn1 [5-(3-chloro-4-fluorobenzenesulfon-amidomethyl)-N-(1,3-thiazol-2-ylmethyl)pyridine-2-carboxamide]",9130 nM
5,"O=C(NCc1cncs1)c1cnc(CNS(=O)(=O)c2ccc(F)c(Cl)c2)cn1 [5-(3-chloro-4-fluorobenzenesulfon-amidomethyl)-N-(1,3-thiazol-5-ylmethyl)pyrazine-2-carboxamide]",929 nM
6,O=C(NCc1cnccn1)c1cnc(CNS(=O)(=O)c2ccc(F)c(Cl)c2)cn1 [5-(3-chloro-4-fluorobenzenesulfon-amidomethyl)-N-(pyrazin-2-ylmethyl)pyrazine-2-carboxamide],2100 nM
7,O=C(NCc1cnccn1)c1ccc(CNS(=O)(=O)c2ccc(F)c(Cl)c2)cn1 [5-(3-chloro-4-fluorobenzenesulfon-amidomethyl)-N-(pyrazin-2-ylmethyl)pyridine-2-carboxamide],1690 nM
8,O=C(NCc1cccnc1)c1ccc(CNS(=O)(=O)c2ccc(F)c(Cl)c2)cn1 [5-(3-chloro-4-fluorobenzenesulfon-amidomethyl)-N-(pyridin-3-ylmethyl)pyridine-2-carboxamide],758 nM
9,O=C(NCc1ccncc1)c1cnc(CNS(=O)(=O)c2ccc(F)c(Cl)c2)cn1 [5-(3-chloro-4-fluorobenzenesulfon-amidomethyl)-N-(pyridin-4-ylmethyl)pyrazine-2-carboxamide],1700 nM
10,O=C(NCc1cncnc1)c1cnc(CNS(=O)(=O)c2ccc(F)c(Cl)c2)cn1 [5-(3-chloro-4-fluorobenzenesulfon-amidomethyl)-N-(pyrimidin-5-ylmethyl)pyrazine-2-carboxamide],4840 nM
11,O=C(NCc1cncnc1)c1ccc(CNS(=O)(=O)c2ccc(F)c(Cl)c2)cn1 [5-(3-chloro-4-fluorobenzenesulfon-amidomethyl)-N-(pyrimidin-5-ylmethyl)pyridine-2-carboxamide],7390 nM
12,CC(NC(=O)c1ccc(CNS(=O)(=O)c2ccc(F)c(Cl)c2)cn1)c1ccco1 (centres unmarked) [5-(3-chloro-4-fluorobenzenesulfon-amidomethyl)-N-[1-(furan-2-yl)ethyl]pyridine-2-carboxamide],5510 nM
13,CC(NC(=O)c1ccc(CNS(=O)(=O)c2ccc(F)c(Cl)c2)cn1)c1cccs1 (centres unmarked) [5-(3-chloro-4-fluorobenzenesulfon-amidomethyl)-N-[1-(thiophen-2-yl)ethyl]pyridine-2-carboxamide],2400 nM
14,"Cc1ccc(CNC(=O)c2cnc(CNS(=O)(=O)c3ccc(F)c(Cl)c3)cn2)n1C [5-(3-chloro-4-fluorobenzenesulfon-amidomethyl)-N-[(1,5-dimethyl-1H-pyrrol-2-yl)methyl]pyrazine-2-carboxamide]",757 nM
15,Cn1cncc1CNC(=O)c1cnc(CNS(=O)(=O)c2ccc(F)c(Cl)c2)cn1 [5-(3-chloro-4-fluorobenzenesulfon-amidomethyl)-N-[(1-methyl-1H-imidazol-5-yl)methyl]pyrazine-2-carboxamide],8950 nM
16,Cn1cncc1CNC(=O)c1ccc(CNS(=O)(=O)c2ccc(F)c(Cl)c2)cn1 [5-(3-chloro-4-fluorobenzenesulfon-amidomethyl)-N-[(1-methyl-1H-imidazol-5-yl)methyl]pyridine-2-carboxamide],8360 nM
17,Cn1cc(CNC(=O)c2ccc(CNS(=O)(=O)c3ccc(F)c(Cl)c3)cn2)cn1 [5-(3-chloro-4-fluorobenzenesulfon-amidomethyl)-N-[(1-methyl-1H-pyrazol-4-yl)methyl]pyridine-2-carboxamide],4590 nM
18,Cn1cccc1CNC(=O)c1cnc(CNS(=O)(=O)c2ccc(F)c(Cl)c2)cn1 [5-(3-chloro-4-fluorobenzenesulfon-amidomethyl)-N-[(1-methyl-1H-pyrrol-2-yl)methyl]pyrazine-2-carboxamide],3090 nM
19,Cn1cccc1CNC(=O)c1ccc(CNS(=O)(=O)c2ccc(F)c(Cl)c2)cn1 [5-(3-chloro-4-fluorobenzenesulfon-amidomethyl)-N-[(1-methyl-1H-pyrrol-2-yl)methyl]pyridine-2-carboxamide],2550 nM
20,"C[C@@H](NC(=O)c1cnc(CNS(=O)(=O)c2ccc(F)c(Cl)c2)cn1)c1cncs1 [5-(3-chloro-4-fluorobenzenesulfon-amidomethyl)-N-[(1R)-1-(1,3-thiazol-5-yl)ethyl]pyrazine-2-carboxamide]",10500 nM
21,COc1cc(CNC(=O)c2cnc(CNS(=O)(=O)c3ccc(F)c(Cl)c3)cn2)ccn1 [5-(3-chloro-4-fluorobenzenesulfon-amidomethyl)-N-[(2-methoxypyridin-4-yl)methyl]pyrazine-2-carboxamide],850 nM
22,COc1cc(CNC(=O)c2ccc(CNS(=O)(=O)c3ccc(F)c(Cl)c3)cn2)ccn1 [5-(3-chloro-4-fluorobenzenesulfon-amidomethyl)-N-[(2-methoxypyridin-4-yl)methyl]pyridine-2-carboxamide],3020 nM
23,COc1cccc(CNC(=O)c2ccc(CNS(=O)(=O)c3ccc(F)c(Cl)c3)cn2)c1 [5-(3-chloro-4-fluorobenzenesulfon-amidomethyl)-N-[(3-methoxyphenyl)methyl] pyridine-2-carboxamide],3370 nM

# Next, values leading:
row,IC50,SMILES
1,494 nM,"Cc1ncc(CNC(=O)c2cnc(CNS(=O)(=O)c3ccc(Cl)c(Cl)c3)c(C)n2)s1 [5-(3,4-dichlorobenzenesulfon-amidomethyl)-6-methyl-N-[(2-methyl-1,3-thiazol-5-yl)methyl]pyrazine-2-carboxamide]"
2,313 nM,"Cc1ncc(CNC(=O)c2cnc(CNS(=O)(=O)c3ccc(F)c(F)c3)cn2)s1 [5-(3,4-difluorobenzenesulfon-amidomethyl)-N-[(2-methyl-1,3-thiazol-5-yl)methyl]pyrazine-2-carboxamide]"
3,219 nM,"Cc1ncc(CNC(=O)c2ccc(CNS(=O)(=O)c3ccc(F)c(F)c3)cn2)s1 [5-(3,4-difluorobenzenesulfon-amidomethyl)-N-[(2-methyl-1,3-thiazol-5-yl)methyl]pyridine-2-carboxamide]"
4,366 nM,"Cc1ncc(CNC(=O)c2cnc(CNS(=O)(=O)c3cc(F)cc(F)c3)c(C)n2)s1 [5-(3,5-difluorobenzenesulfon-amidomethyl)-6-methyl-N-[(2-methyl-1,3-thiazol-5-yl)methyl]pyrazine-2-carboxamide]"
5,87.8 nM,"CCc1nc(C(=O)NCc2cnc(C)s2)cnc1CNS(=O)(=O)c1ccc(F)c(Cl)c1 [5-(3-chloro-4-fluorobenzenesulfon-amidomethyl)-6-ethyl-N-[(2-methyl-1,3-thiazol-5-yl)methyl]pyrazine-2-carboxamide]"
6,19.6 nM,"Cc1ncc(CNC(=O)c2cnc(CNS(=O)(=O)c3ccc(F)c(Cl)c3)c(C)n2)s1 [5-(3-chloro-4-fluorobenzenesulfon-amidomethyl)-6-methyl-N-[(2-methyl-1,3-thiazol-5-yl)methyl]pyrazine-2-carboxamide]"
7,347 nM,"O=C(NCc1cncs1)c1ccc(CNS(=O)(=O)c2ccc(F)c(Cl)c2)cn1 [5-(3-chloro-4-fluorobenzenesulfon-amidomethyl)-N-(1,3-thiazol-5-ylmethyl)pyridine-2-carboxamide]"
8,439 nM,O=C(NCc1cccnc1)c1cnc(CNS(=O)(=O)c2ccc(F)c(Cl)c2)cn1 [5-(3-chloro-4-fluorobenzenesulfon-amidomethyl)-N-(pyridin-3-ylmethyl)pyrazine-2-carboxamide]
9,180 nM,"Cc1ncc(C(C)NC(=O)c2cnc(CNS(=O)(=O)c3ccc(F)c(Cl)c3)cn2)s1 (centres unmarked) [5-(3-chloro-4-fluorobenzenesulfon-amidomethyl)-N-[1-(2-methyl-1,3-thiazol-5-yl)ethyl]pyrazine-2-carboxamide]"
10,169 nM,"Cc1ncc(CNC(=O)c2cnc(CNS(=O)(=O)c3ccc(F)c(Cl)c3)c(C(F)(F)F)n2)s1 [5-(3-chloro-4-fluorobenzenesulfon-amidomethyl)-N-[(2-methyl-1,3-thiazol-5-yl)methyl]-6-(trifluoromethyl)pyrazine-2-carboxamide]"
11,204 nM,"Cc1ncc(CNC(=O)c2ccc(CNS(=O)(=O)c3ccc(F)c(Cl)c3)cn2)s1 [5-(3-chloro-4-fluorobenzenesulfon-amidomethyl)-N-[(2-methyl-1,3-thiazol-5-yl)methyl]pyridine-2-carboxamide]"

# Same assay, conditions: binned NR2A inhibition concentration, read-out: Binned Activity
row,IC50,SMILES
1,> 10000 nM,Cc1ncc(CNC(=O)c2ccc(CNS(=O)(=O)c3c(C)noc3C)cn2)s1
